Activity calls are given as the source filed them. No cut-off for these calls is given here.
What was measured:
Mus musculus [1] = assay: Neurotoxicity in Swiss mouse assessed as motor impairment at 5 mg/kg, ip administered 60 mins measured for 1 min by rotarod test; type: toxicity, organism-based; set-up: dose 5 mg/kg, route intraperitoneal; settings: in vivo
Mus musculus [2] = assay: Antinociceptive activity in Swiss mouse assessed as increase in latency time at 5 mg/kg, sc administered 30 mins prior to testing measured after 30 to 120 mins by hot plate test; type: functional, organism-based; set-up: dose 5 mg/kg
Mus musculus [3] = species: Mus musculus; assay: animal or person; settings: Swiss, sc, read-out: INH
Description: Antinociceptive activity in Swiss mouse assessed as inhibition of formalin-induced paw licking at 5 mg/kg, sc administered 30 mins prior to formalin challenge measured during inflammatory phase for 20 to 25 mins

Mus musculus [4] = species: Mus musculus; assay: animal or person; settings: Swiss, sc, read-out: INH; remark: listed apart in the source
Description: Antinociceptive activity in Swiss mouse assessed as inhibition of formalin-induced paw licking at 5 mg/kg, sc administered 30 mins prior to formalin challenge measured during neurogenic phase for 1 to 5 mins

Mus musculus [5] = species: Mus musculus; assay: animal or person; settings: Swiss, Abdomen, ip, read-out: INH
Description: Antinociceptive activity in Swiss mouse assessed as inhibition of acetic acid-induced abdominal writhing response at 5 mg/kg, ip administered 30 mins prior to acetic acid challenge measured for 10 to 20 mins

Mus musculus [6] = assay: Antiinflammatory activity in Swiss mouse assessed as inhibition of carrageenan-induced neutrophil migration into peritoneal cavity at 10 mg/kg, ip administered 30 mins prior to carrageenan challenge measured after 4 hrs relative to carrageenan-treated control; type: functional; settings: route intraperitoneal
Mus musculus [7] = assay: Antiinflammatory activity in Swiss mouse assessed as inhibition of carrageenan-induced total leukocytes migration into peritoneal cavity at 10 mg/kg, ip administered 30 mins prior to carrageenan challenge measured after 4 hrs relative to carrageenan-treated control; type: functional; settings: route intraperitoneal
Mus musculus [8] = assay: Antiinflammatory activity in Swiss mouse assessed as reduction of carrageenan-induced paw myeloperoxidase activity measured per mg of tissue at 10 mg/kg, ip administered 30 mins prior to carrageenan challenge measured after 4 hrs (reference value: 10.9 +/- 1.2 U); type: functional; settings: route intraperitoneal
Mus musculus [9] = assay: Antiinflammatory activity in Swiss mouse assessed as inhibition of histamine-induced paw edema at 10 mg/kg, ip administered 30 mins prior to histamine challenge measured after 60 mins relative to untreated control; type: functional, organism-based; set-up: dose 10 mg/kg
Mus musculus [10] = assay: Antiinflammatory activity in Swiss mouse assessed as inhibition of bradykinin-induced paw edema at 10 mg/kg, ip administered 30 mins prior to bradykinin challenge measured after 60 mins in presence of captopril relative to untreated control; type: functional, organism-based; set-up: dose 10 mg/kg
Mus musculus [11] = assay: Antiinflammatory activity in Swiss mouse assessed as inhibition of serotonin-induced paw edema at 10 mg/kg, ip administered 30 mins prior to serotonin challenge measured after 4 hrs relative to untreated control; type: functional, organism-based; set-up: dose 10 mg/kg
Mus musculus [12] = assay: Antiinflammatory activity in Swiss mouse assessed as inhibition of dextran sulfate-induced paw edema at 10 mg/kg, ip administered 30 mins prior to dextran sulfate challenge measured after 4 hrs relative to untreated control; type: functional, organism-based; set-up: dose 10 mg/kg
Mus musculus [13] = assay: Antiinflammatory activity in Swiss mouse assessed as inhibition of carrageenan-induced paw edema at 10 mg/kg, ip measured at 4 hrs by plethysmometric analysis relative to untreated control; type: functional; settings: route intraperitoneal
Mus musculus [14] = assay: Antiinflammatory activity in Swiss mouse assessed as inhibition of carrageenan-induced paw edema at 10 mg/kg, ip measured at 3 hrs by plethysmometric analysis relative to untreated control; type: functional; settings: route intraperitoneal
Mus musculus [15] = assay: Antiinflammatory activity in Swiss mouse assessed as inhibition of carrageenan-induced paw edema at 10 mg/kg, ip measured at 2 hrs by plethysmometric analysis relative to untreated control; type: functional; settings: route intraperitoneal
Mus musculus [16] = assay: Antiinflammatory activity in Swiss mouse assessed as inhibition of carrageenan-induced paw edema at 10 mg/kg, ip measured at 1 hr by plethysmometric analysis relative to untreated control; type: functional; settings: route intraperitoneal
Mus musculus [17] = assay: Antinociceptive activity in Swiss mouse assessed as inhibition of formalin-induced paw licking at 1 mg/kg, ip administered 30 mins prior to formalin challenge measured during neurogenic phase for 1 to 5 mins in presence of opioid receptor antagonist naloxone; type: functional, organism-based; set-up: dose 1 mg/kg
Mus musculus [18] = assay: Antinociceptive activity in Swiss mouse assessed as inhibition of formalin-induced paw licking at 1 mg/kg, ip administered 30 mins prior to formalin challenge measured during inflammatory phase for 20 to 25 mins; type: functional; settings: route intraperitoneal
Mus musculus [19] = assay: Antinociceptive activity in Swiss mouse assessed as inhibition of formalin-induced paw licking at 1 mg/kg, ip administered 30 mins prior to formalin challenge measured during neurogenic phase for 1 to 5 mins; type: functional; settings: route intraperitoneal
Mus musculus [20] = assay: Neurotoxicity in Swiss mouse assessed as motor impairment at 1 to 10 mg/kg, ip administered 60 mins measured for 1 min by rotarod test; type: toxicity, organism-based; set-up: dose 1-10 mg/kg, route intraperitoneal; settings: in vivo
Mus musculus [21] = assay: Antinociceptive activity in Swiss mouse assessed as increase in latency time at 1 mg/kg, ip administered 30 mins prior to testing measured after 30 to 120 mins by hot plate test; type: functional, organism-based; set-up: dose 1 mg/kg
Mus musculus [22] = assay: Antinociceptive activity in Swiss mouse assessed as inhibition of acetic acid-induced abdominal writhing response at 1 mg/kg, ip administered 30 mins prior to acetic acid challenge measured for 10 to 20 mins; type: functional; settings: Abdomen, route intraperitoneal
Mus musculus [23] = assay: Antiinflammatory activity in Swiss mouse assessed as reduction of carrageenan-induced IL-1beta level into peritoneal fluid at 1 mg/kg, ip administered 1 hr prior to carrageenan challenge measured after 4 hrs by sandwich ELISA; type: functional, organism-based; set-up: dose 1 mg/kg
Mus musculus [24] = assay: Antiinflammatory activity in Swiss mouse assessed as reduction of carrageenan-induced TNFalpha level into peritoneal fluid at 1 mg/kg, ip administered 1 hr prior to carrageenan challenge measured after 4 hrs by sandwich ELISA; type: functional, organism-based; set-up: dose 1 mg/kg
Mus musculus [25] = assay: Antiinflammatory activity in Swiss mouse assessed as inhibition of carrageenan-induced neutrophil migration into peritoneal cavity at 1 mg/kg, ip administered 30 mins prior to carrageenan challenge measured after 4 hrs relative to carrageenan-treated control; type: functional; settings: route intraperitoneal
Mus musculus [26] = assay: Antiinflammatory activity in Swiss mouse assessed as inhibition of carrageenan-induced total leukocytes migration into peritoneal cavity at 1 mg/kg, ip administered 30 mins prior to carrageenan challenge measured after 4 hrs relative to carrageenan-treated control; type: functional; settings: route intraperitoneal
Mus musculus [27] = assay: Antiinflammatory activity in Swiss mouse assessed as reduction of carrageenan-induced paw myeloperoxidase activity measured per mg of tissue at 1 mg/kg, ip administered 30 mins prior to carrageenan challenge measured after 4 hrs (reference value: 10.9 +/- 1.2 U); type: functional; settings: route intraperitoneal
Mus musculus [28] = assay: Antiinflammatory activity in Swiss mouse assessed as inhibition of histamine-induced paw edema at 1 mg/kg, ip administered 30 mins prior to histamine challenge measured after 60 mins relative to untreated control; type: functional, organism-based; set-up: dose 1 mg/kg
Mus musculus [29] = assay: Antiinflammatory activity in Swiss mouse assessed as inhibition of bradykinin-induced paw edema at 1 mg/kg, ip administered 30 mins prior to bradykinin challenge measured after 60 mins in presence of captopril relative to untreated control; type: functional; settings: route intraperitoneal
Mus musculus [30] = assay: Antiinflammatory activity in Swiss mouse assessed as inhibition of serotonin-induced paw edema at 1 mg/kg, ip administered 30 mins prior to serotonin challenge measured after 4 hrs relative to untreated control; type: functional; settings: route intraperitoneal
Mus musculus [31] = assay: Antiinflammatory activity in Swiss mouse assessed as inhibition of dextran sulfate-induced paw edema at 1 mg/kg, ip administered 30 mins prior to dextran sulfate challenge measured after 4 hrs relative to untreated control; type: functional; settings: route intraperitoneal
Mus musculus [32] = assay: Antiinflammatory activity in Swiss mouse assessed as inhibition of carrageenan-induced paw edema at 1 mg/kg, ip measured at 4 hrs by plethysmometric analysis relative to untreated control; type: functional; settings: route intraperitoneal
Mus musculus [33] = assay: Antiinflammatory activity in Swiss mouse assessed as inhibition of carrageenan-induced paw edema at 0.3 mg/kg, ip measured at 4 hrs by plethysmometric analysis relative to untreated control; type: functional; settings: route intraperitoneal
Mus musculus [34] = assay: Antiinflammatory activity in Swiss mouse assessed as inhibition of carrageenan-induced paw edema at 0.1 mg/kg, ip measured at 4 hrs by plethysmometric analysis relative to untreated control; type: functional; settings: route intraperitoneal
Mus musculus [35] = assay: Antiinflammatory activity in Swiss mouse assessed as inhibition of carrageenan-induced paw edema at 1 mg/kg, ip measured at 3 hrs by plethysmometric analysis relative to untreated control; type: functional; settings: route intraperitoneal
Mus musculus [36] = assay: Antiinflammatory activity in Swiss mouse assessed as inhibition of carrageenan-induced paw edema at 0.3 mg/kg, ip measured at 3 hrs by plethysmometric analysis relative to untreated control; type: functional; settings: route intraperitoneal
Mus musculus [37] = assay: Antiinflammatory activity in Swiss mouse assessed as inhibition of carrageenan-induced paw edema at 0.1 mg/kg, ip measured at 3 hrs by plethysmometric analysis relative to untreated control; type: functional; settings: route intraperitoneal
Mus musculus [38] = assay: Antiinflammatory activity in Swiss mouse assessed as inhibition of carrageenan-induced paw edema at 1 mg/kg, ip measured at 2 hrs by plethysmometric analysis relative to untreated control; type: functional; settings: route intraperitoneal
Mus musculus [39] = assay: Antiinflammatory activity in Swiss mouse assessed as inhibition of carrageenan-induced paw edema at 0.3 mg/kg, ip measured at 2 hrs by plethysmometric analysis relative to untreated control; type: functional; settings: route intraperitoneal
Mus musculus [40] = assay: Antiinflammatory activity in Swiss mouse assessed as inhibition of carrageenan-induced paw edema at 0.1 mg/kg, ip measured at 2 hrs by plethysmometric analysis relative to untreated control; type: functional; settings: route intraperitoneal
Mus musculus [41] = assay: Antiinflammatory activity in Swiss mouse assessed as inhibition of carrageenan-induced paw edema at 1 mg/kg, ip measured at 1 hr by plethysmometric analysis relative to untreated control; type: functional; settings: route intraperitoneal
Mus musculus [42] = assay: Antiinflammatory activity in Swiss mouse assessed as inhibition of carrageenan-induced paw edema at 0.3 mg/kg, ip measured at 1 hr by plethysmometric analysis relative to untreated control; type: functional; settings: route intraperitoneal
Mus musculus [43] = assay: Antiinflammatory activity in Swiss mouse assessed as inhibition of carrageenan-induced paw edema at 0.1 mg/kg, ip measured at 1 hr by plethysmometric analysis relative to untreated control; type: functional; settings: route intraperitoneal

`CN1C(=O)CN=C(c2ccccc2)c2cc(Cl)ccc21` [DIAZEPAM] was tested, and the Activity (Mus musculus [1]) was “Toxic”.
`CN1CC[C@]23c4c5ccc(O)c4O[C@H]2[C@@H](O)C=C[C@H]3[C@H]1C5` [MORPHINE] was tested, and the Activity (Mus musculus [2]) was “Active”, the inhibition in vivo at 5 mg/kg (Mus musculus [3]) was 97.2% and the inhibition in vivo at 5 mg/kg (Mus musculus [4]) was 94%. For the same compound, the inhibition in vivo at 5 mg/kg (Mus musculus [5]) was 98.3%.
Compound `COc1ccc2c(c1)c(CC(=O)O)c(C)n2C(=O)c1ccc(Cl)cc1` [INDOMETHACIN] has an inhibition in vivo at 10 mg/kg (Mus musculus [6]) of 79.6%, an inhibition in vivo at 10 mg/kg (Mus musculus [7]) of 60.2% and an Activity (Mus musculus [8]) of 3.1 U. For the same compound, the inhibition (Mus musculus [9]) was “Active”, the inhibition (Mus musculus [10]) was “Active” and the inhibition (Mus musculus [11]) was “Active”. For the same compound, the inhibition (Mus musculus [12]) was “Active”, the inhibition in vivo at 10 mg/kg (Mus musculus [13]) was 37% and the inhibition in vivo at 10 mg/kg (Mus musculus [14]) was 43.7%. For the same compound, the inhibition in vivo at 10 mg/kg (Mus musculus [15]) was 50.9% and the inhibition in vivo at 10 mg/kg (Mus musculus [16]) was 55%.
With `Cn1cnc(C[C@H]2COC(=O)[C@@H]2[C@H](O)c2ccccc2)c1` [EPIISOPILOTURINE] the Activity (Mus musculus [17]) was “inactive”, the inhibition in vivo at 1 mg/kg (Mus musculus [18]) was 89.2% and the inhibition in vivo at 1 mg/kg (Mus musculus [19]) was 58.2%. For the same compound, the Activity (Mus musculus [20]) was “Non-toxic”, the Activity (Mus musculus [21]) was “inactive” and the inhibition in vivo at 1 mg/kg (Mus musculus [22]) was 66.4%. For the same compound, the Activity (Mus musculus [23]) was “Active”, the Activity (Mus musculus [24]) was “Active” and the inhibition in vivo at 1 mg/kg (Mus musculus [25]) was 73.8%. The inhibition in vivo at 1 mg/kg (Mus musculus [26]) was 55.2%, the Activity (Mus musculus [27]) was 3.8 U and the inhibition (Mus musculus [28]) was “inactive”. For the same compound, the inhibition in vivo at 1 mg/kg (Mus musculus [29]) was 76.9%, the inhibition in vivo at 1 mg/kg (Mus musculus [30]) was 46.7% and the inhibition in vivo at 1 mg/kg (Mus musculus [31]) was 54.1%. The inhibition in vivo at 1 mg/kg (Mus musculus [32]) was 73%, the inhibition in vivo at 0.3 mg/kg (Mus musculus [33]) was 67.6% and the inhibition in vivo at 0.1 mg/kg (Mus musculus [34]) was 49.7%. For the same compound, the inhibition in vivo at 1 mg/kg (Mus musculus [35]) was 85%, the inhibition in vivo at 0.3 mg/kg (Mus musculus [36]) was 70% and the inhibition in vivo at 0.1 mg/kg (Mus musculus [37]) was 55%. It also gave an inhibition in vivo at 1 mg/kg (Mus musculus [38]) of 79.5%, an inhibition in vivo at 0.3 mg/kg (Mus musculus [39]) of 71.3% and an inhibition in vivo at 0.1 mg/kg (Mus musculus [40]) of 46.8%. It also gave an inhibition in vivo at 1 mg/kg (Mus musculus [41]) of 65%, an inhibition in vivo at 0.3 mg/kg (Mus musculus [42]) of 48% and an inhibition in vivo at 0.1 mg/kg (Mus musculus [43]) of 36%.

From ChEMBL document CHEMBL2385075, “Anti-inflammatory and antinociceptive activity of epiisopiloturine, an imidazole alkaloid isolated from Pilocarpus microphyllus” (J Nat Prod, 2013)
